Measured values as given in patent US11691992B2 (Anacor Pharmaceuticals, Inc., priority 2017, dated 2023).

Experiments:
Type in all cases: cell-based
[1] = tested on: L. infantum MHOM/MA(BE)/67 amastigotes in primary peritoneal mouse macrophages; test: Leishmania infantum intracellular amastigote assay in mouse macrophages; conditions: Macrophage, 120 h, amastigotes in primary peritoneal mouse macrophages, 5 d, Giemsa staining, read-out: Inhibition of Organism Growth in Leishmania infantum MHOM/MA/BE/67, 5 d
Method in brief: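 Amastigotes harvested from infected hamster spleen infected primary peritoneal mouse macrophages (5×10^5 amastigotes/well, 2 h, 37 °C). Compounds then present 5 d at 37 °C, 5% CO2. Parasite burden counted by microscopy after Giemsa staining, as % of untreated controls; IC50 from sigmoidal variable-slope fit.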

[2] = tested on: IL3000 T. congolense (drug sensitive) strain; test: In vitro Alamar Blue 72 h drug sensitivity assay for T. congolense; conditions: Trypanosoma congolense; bloodstream form, 69 h + 3 h resazurin, 34° C.; classes A-C; read-out: IC50: I Org. Growth T. congolense IL-3000, 3 d
Method in brief: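 Bloodstream-form trypanosomes in HMI medium with 20% bovine serum, exposed to compound for 69 h at 34 °C, 5% CO2, then resazurin for 3 h more. Fluorescence read at 536/588 nm. IC50 from 11-point sigmoidal dose-response curves, at least three independent runs.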

[3] = tested on: promastigote forms of L. major; test: Leishmania major promastigote growth inhibition assay (Alamar Blue); conditions: promastigotes, 44 hours + 4 hours Alamar Blue, read-out: IC50: I Org. promastigote Growth L. major, 2 d
Method in brief: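 Early-log L. major promastigotes (5,000/well) in Schneider's medium with 20% FBS incubated with compound 44 h at 28° C; drug solutions in DMSO were 10,000 or 1,000 ng/ml before dispensing. Alamar Blue added 4 h, fluorescence at 560/590 nm gives percent growth inhibition; IC50 determined for compounds inhibiting ≥50%.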

Row | Compound | IC50 [1] [µM] | IC50 [2] [nM] | IC50 [3] [nM]
1 | Cc1c(C(=O)Nc2ccc3c(c2)B(O)OC3)nnn1-c1ccccn1 [Example 84, N-(1-hydroxy-1,3-dihydrobenzo[c][1,2]oxaborol-6-yl)-5-methyl-1-(pyridin-2-yl)-1H-1,2,3-triazole-4-carboxamide] | < 3 | < 100 | < 600
2 | Cc1c(C(=O)Nc2ccc3c(c2)B(O)OC3)nnn1-c1cccnc1 [Example 93, N-(1-hydroxy-1,3-dihydrobenzo[c][1,2]oxaborol-6-yl)-5-methyl-1-(pyridin-3-yl)-1H-1,2,3-triazole-4-carboxamide] | 20 to 100 | 100 to 300 | 2510 to 20000
3 | O=C(Nc1ccc2c(c1)B(O)OC2)c1cn(-c2ccccn2)nn1 [Example 61, N-(1-hydroxy-1,3-dihydrobenzo[c][1,2]oxaborol-6-yl)-1-(pyridin-2-yl)-1H-1,2,3-triazole-4-carboxamide] | < 3 | < 100 | < 600
4 | O=C(Nc1ccc2c(c1)B(O)OC21CCC1)c1cn(-c2ccccc2)nn1 [Example 3, N-(1-hydroxy-1H-spiro[benzo[c][1,2]oxaborole-3,1′-cyclobutan]-6-yl)-1-phenyl-1H-1,2,3-triazole-4-carboxamide] |  | 100 to 300 | 600 to 2500
5 | O=C(Nc1ccc2c(c1)B(O)OC21CCC1)c1cn(-c2ccccn2)nn1 [Example 26, N-(1-hydroxy-1H-spiro[benzo[c][1,2]oxaborole-3,1′-cyclobutan]-6-yl)-1-(pyridin-2-yl)-1H-1,2,3-triazole-4-carboxamide] |  | 310 to 100000 | 2510 to 20000
6 | CC1OB(O)c2cc(NC(=O)c3cn(-c4ccc(F)cc4)nn3)ccc21 (centres unmarked) [Example 5] |  | 100 to 300 | 600 to 2500
7 | Cc1c(C(=O)Nc2ccc3c(c2)B(O)OC3C)nnn1-c1cccnc1 (centres unmarked) [Example 14] |  | < 100 | 2510 to 20000
8 | COc1ccc(-n2nnc(C(=O)Nc3ccc4c(c3)B(O)OC4)c2C)cc1 [Example 91, N-(1-hydroxy-1,3-dihydrobenzo[c][1,2]oxaborol-6-yl)-1-(4-methoxyphenyl)-5-methyl-1H-1,2,3-triazole-4-carboxamide] |  | 100 to 300 | < 600
9 | O=C(Nc1ccc2c(c1)B(O)OC21CCC1)c1cn(-c2ccc(F)cc2)nn1 [Example 7, 1-(4-fluorophenyl)-N-(1-hydroxy-1H-spiro[benzo[c][1,2]oxaborole-3,1′-cyclobutan]-6-yl)-1H-1,2,3-triazole-4-carboxamide] |  | 310 to 100000 | 2510 to 20000
10 | COc1ccc(-n2cc(C(=O)Nc3ccc4c(c3)B(O)OC43CCC3)nn2)cc1 [Example 25, N-(1-hydroxy-1H-spiro[benzo[c][1,2]oxaborole-3,1′-cyclobutan]-6-yl)-1-(4-methoxyphenyl)-1H-1,2,3-triazole-4-carboxamide] |  | 310 to 100000 | 2510 to 20000
